From patent publication US9862720B2, “Inhibitors of the renal outer medullary potassium channel” (Merck Sharp & Dohme Corp., priority 2014, dated 2018) come the findings set out here.

The target in one experiment is T1, ROMK (Kir1.1) channel (Homo sapiens, UniProt P48048).
T1 sequence (P48048 1-391): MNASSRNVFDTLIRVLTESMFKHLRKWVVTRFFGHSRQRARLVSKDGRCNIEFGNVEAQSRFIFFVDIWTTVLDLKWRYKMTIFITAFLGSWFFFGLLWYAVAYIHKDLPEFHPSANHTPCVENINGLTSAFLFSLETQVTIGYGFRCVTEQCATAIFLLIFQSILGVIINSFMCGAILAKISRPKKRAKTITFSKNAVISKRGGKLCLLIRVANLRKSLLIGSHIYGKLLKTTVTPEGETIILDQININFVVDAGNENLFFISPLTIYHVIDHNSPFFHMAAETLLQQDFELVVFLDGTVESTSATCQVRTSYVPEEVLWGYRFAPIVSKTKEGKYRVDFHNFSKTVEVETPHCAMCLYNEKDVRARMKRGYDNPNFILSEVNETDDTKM
The experiment is described as follows: Thallium Flux Assay. The class given is cell-based. The procedure:
A Thallium Flux Assay was performed on the compounds of the Examples. This assay has been described previously; see, e.g., PCT Published Application WO 2013/062900.

A further experiment deals with T2, Kir1.1 (ROMK1) (Homo sapiens, UniProt P48048).
T2 construct: expressed in transfected cells
T2 sequence (P48048 1-391): T1 sequence (P48048 1-391)
The experiment is described as follows: Electrophysiology Assay (whole cell voltage clamp, IonWorks Quattro). The experiment is classed as cell-based. Conditions: Chinese hamster ovary cells stably expressing Kir1.1; fractional block at voltage step to 0 mV; 6 min compound incubation. The procedure:
Blocking of Kir1.1 (ROMK1) currents was examined by whole cell voltage clamp (Hamill et. al. Pfluegers Archives 391:85-100 (1981) using the IonWorks Quattro automated electrophysiology platform (Molecular Devices, Sunnyvale, Calif.). Chinese hamster ovary cells stably expressing Kir1.1 channels were maintained in T-75 flasks in cell culture media in a humidified 10% CO2 incubator at 37° C. Prior to an experiment, Kir1.1 expression was induced by overnight incubation with 1 mM sodium butyrate. On the day of the experiment, cells were dissociated with 2.5 mL of Versene (Invitrogen 15040-066), a non-enzymatic cell dissociation reagent, for approximately 6 min at 37° C. and suspended in 10 mL of bath solution containing (in mM): 150 NaCl, 10 KCl, 2.7 CaCl2, 0.5 MgCl2, and 5 HEPES, at pH 7.4. After centrifugation, the cell pellet was resuspended in approximately 4.0 mL of bath solution and placed in the IonWorks instrument. The intracellular solution consisted of (in mM): 80 K gluconate, 40 KCl, 20 KF, 3.2 MgCl2, 3 EGTA, and 5 Hepes, at pH 7.4. Electrical access to the cytoplasm was achieved by perforation in 0.13 mg/mL amphotericin B for 4 min. Amphotericin B (Sigma A-4888) was prepared as a 40 mg/mL solution in DMSO.
Voltage protocols and current recordings were performed using the IonWorks HT software/hardware system. Currents were sampled at 1 kHz. There was no correction for liquid junction potentials. The test pulse, consisting of a 100 ms (millisecond) step to 0 mV (millivolts) from a holding potential of −70 mV, followed by a 100 ms voltage ramp from −70 mV to +70 mV, was applied before and after a 6 min compound incubation period. Test compounds were prepared by diluting DMSO stock solutions into the bath solution at 3× the final concentration and placed in the instrument in 96-well polypropylene plates. Current amplitudes were measured using the IonWorks software. To assess compound potency, the fractional block during the voltage step to 0 mV was calculated in Microsoft Excel (Microsoft, Redmond, Calif.), and dose-response curves were fitted with Igor Pro 4.0 (WaveMetrics, Lake Oswego, Oreg.). Although not required, a control compound is typically included to support that the assay is giving consistent results compared to previous measurements.

For the compound `CC1=C(N2NCC3(CCN(C[C@H](O)c4ccc(-n5cnnn5)nc4)CC3)C2=O)COC1=O` [Example 2A, (R)-8-(2-(6-(1H-tetrazol-1-yl)pyridin-3-yl)-2-hydroxyethyl)-2-(4-methyl-5-oxo-2,5-dihydrofuran-3-yl)-2,3,8-triazaspiro[4.5]decan-1-one], the IC50 came out at 36.5 nM at ROMK (Kir1.1) channel and 53 nM against Kir1.1 (ROMK1).

With `CC1=C(N2N=CC3(CCN(CCc4ccc(-n5cnnn5)nn4)CC3)C2=O)COC1=O` [Example 5, 8-(2-(6-(1H-tetrazol-1-yl)pyridazin-3-yl)ethyl)-2-(4-methyl-5-oxo-2,5-dihydrofuran-3-yl)-2,3,8-triazaspiro[4.5]dec-3-en-1-one], it took 45.8 nM to reach half-maximal inhibition against ROMK (Kir1.1) channel (IC50).

`CC1=C(N2N=CC3(CCN(C[C@@H](O)c4ccc(-n5cnnn5)nc4)CC3)C2=O)COC1=O` [Example 3B, (S)-8-(2-(6-(1H-tetrazol-1-yl)pyridin-3-yl)-2-hydroxyethyl)-2-(4-methyl-5-oxo-2,5-dihydrofuran-3-yl)-2,3,8-triazaspiro[4.5]dec-3-en-1-one]: the IC50 at ROMK (Kir1.1) channel amounted to 57.1 nM.

For the compound `CC1=C(N2N=CC3(CCN(C[C@H](O)c4ccc(-n5cnnn5)nc4)CC3)C2=O)COC1=O` [Example 3A, (R)-8-(2-(6-(1H-tetrazol-1-yl)pyridin-3-yl)-2-hydroxyethyl)-2-(4-methyl-5-oxo-2,5-dihydrofuran-3-yl)-2,3,8-triazaspiro[4.5]dec-3-en-1-one], the half-inhibitory concentration (IC50) against ROMK (Kir1.1) channel was found to be 54.9 nM; against Kir1.1 (ROMK1) it was 17 nM.

Turning to `CC1=C(N2NCC3(CCN(C[C@H](O)c4ccc5c(c4C)COC5=O)CC3)C2=O)COC1=O` [Example 1, (R)-8-(2-hydroxy-2-(4-methyl-1-oxo-1,3-dihydroisobenzofuran-5-yl)ethyl)-2-(4-methyl-5-oxo-2,5-dihydrofuran-3-yl)-2,3,8-triazaspiro[4.5]decan-1-one], the IC50 against ROMK (Kir1.1) channel amounted to 68.4 nM; against Kir1.1 (ROMK1), 33 nM.

In the case of `CC1=C(N2NCC3(CCN(C[C@@H](O)c4ccc(-n5cnnn5)nc4)CC3)C2=O)COC1=O` [Example 2B, (S)-8-(2-(6-(1H-tetrazol-1-yl)pyridin-3-yl)-2-hydroxyethyl)-2-(4-methyl-5-oxo-2,5-dihydrofuran-3-yl)-2,3,8-triazaspiro[4.5]decan-1-one], the figures for the IC50 on ROMK (Kir1.1) channel and on Kir1.1 (ROMK1) were 57.8 nM and 33 nM, respectively.

With `CC1=C(N2N=CC3(CCN(CC(O)c4ccc(-n5cnnn5)nn4)CC3)C2=O)COC1=O` (single isomer, unassigned) [Example 4A, 8-(2-(6-(1H-tetrazol-1-yl)pyridazin-3-yl)-2-hydroxyethyl)-2-(4-methyl-5-oxo-2,5-dihydrofuran-3-yl)-2,3,8-triazaspiro[4.5]dec-3-en-1-one], the IC50 at ROMK (Kir1.1) channel came to 267 nM.
